Laboratory results reported in patent US5686486A, “4-hydroxy-benzopyran-2-ones and 4-hydroxy-cycloalkyl[b]pyran-2-ones useful to treat retroviral infections” (priority 1995, dated 1997).

How the values were obtained:
HIV-1 protease [1] = target: T1, HIV-1 protease (Human immunodeficiency virus type 1 group M subtype B, UniProt P04585); test: biochemical; conditions: for inhibition at 0.37 µM: read-out: HIV-1 Protease % Inhib, dose 0.370 uM; for inhibition at 1.1 µM: read-out: HIV-1 Protease % Inhib, dose 1.100 uM; for inhibition at 3.3 µM: read-out: HIV-1 Protease % Inhib, dose 3.300 uM; for inhibition at 10 µM: read-out: HIV-1 Protease % Inhib, dose 10.000 uM; for inhibition at 30 µM: read-out: HIV-1 Protease % Inhib, dose 30.000 uM; for inhibition at 0.123 µM: read-out: HIV-1 Protease % Inhib, dose 0.123 uM
Summary of the method: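 Percent inhibition derived from fluorescent cleavage product separated by filtration after streptavidin-bead capture of intact biotin/FITC substrate. Reaction: enzyme (10 μl, 0.1 μM stock) with substrate (20 μl, 0.2 μM stock) and compound, 1 h at room temperature in dark, pH 5.5 acetate buffer with 1.0 M NaCl and 0.05% NP-40.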

HIV-1 protease [2] = target: T1, HIV-1 protease; test: biochemical; conditions: read-out: HIV-1 FITC KI
Summary of the method: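 Enzyme (40 nM stock) and substrate (200 μM stock) incubated with inhibitor, 24–48 two-fold serial concentrations, for 90 min at room temperature, then quenched with avidin beads. Nonlinear least-squares analysis gives Ki; a known-Ki inhibitor validates each run.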

SMILES	inhibition at 0.37 µM (HIV-1 protease [1]) [%]	inhibition at 1.1 µM (HIV-1 protease [1]) [%]	inhibition at 3.3 µM (HIV-1 protease [1]) [%]	inhibition at 10 µM (HIV-1 protease [1]) [%]	inhibition at 30 µM (HIV-1 protease [1]) [%]	Ki (HIV-1 protease [2]) [nM]	inhibition at 0.123 µM (HIV-1 protease [1]) [%]	inhibition at 0.41 µM (HIV-1 protease [1]; read-out: HIV-1 Protease % Inhib, dose 0.410 uM) [%]	inhibition at 1.23 µM (HIV-1 protease [1]; read-out: HIV-1 Protease % Inhib, dose 1.230 uM) [%]	inhibition at 3.7 µM (HIV-1 protease [1]; read-out: HIV-1 Protease % Inhib, dose 3.700 uM) [%]	inhibition at 11 µM (HIV-1 protease [1]; read-out: HIV-1 Protease % Inhib, dose 11.000 uM) [%]	inhibition at 33 µM (HIV-1 protease [1]; read-out: HIV-1 Protease % Inhib, dose 33.000 uM) [%]	inhibition at 100 µM (HIV-1 protease [1]; read-out: HIV-1 Protease % Inhib, dose 100.000 uM) [%]
O=C(Nc1cccc(C(c2c(O)c3c(oc2=O)CCCCCC3)C2CC2)c1)c1ccccc1 (stereo not shown) [Example 211, Benzamide, N-[3-[cyclopropyl(5,6,7,8,9,10-hexahydro-4-hydroxy-2-oxo-2H-cycloocta[b]pyran-3-yl)methyl]phenyl]]	37.2	64.5	89.6	101	101	42	–	–	–	–	–	–	–
CCC1CCCCc2c1oc(=O)c(C(c1ccccc1)C1CC1)c2O (stereo not shown) [Example 185, 3-(Cyclopropylphenylmethyl)-9-ethyl-6,7,8,9-tetrahydro-4-hydroxy-cyclohepta[b]pyran-2(5H)-one]	40.3	71.5	92.6	97.6	91.8	22	18.7	–	–	–	–	–	–
O=c1oc2c(c(O)c1C(c1cccc(NS(=O)(=O)c3cccc(NS(=O)(=O)CCCCl)c3)c1)C1CC1)CCCCCC2 (stereo not shown) [Example 313]	96.5	101	100	106	102	1.17	104	–	–	–	–	–	–
O=c1oc2c(c(O)c1C(c1cccc(NS(=O)(=O)c3cccc(S(=O)(=O)N(Cc4ccccc4)Cc4ccccc4)c3)c1)C1CC1)CCCCCC2 (stereo not shown) [Example 413, N-[3-[Cyclopropyl(5,6,7,8,9,10-hexahydro-4-hydroxy-2-oxo-2H-cycloocta[b]pyran-3-yl)-methyl]phenyl]-(3-N,N-dibenzylbenzenesulfonyl)benzenesulfonamide]	17.4	43.1	77.7	95.2	92.7	104	–	–	–	–	–	–	–
O=c1oc2c(c(O)c1C(c1cccc(NS(=O)(=O)c3ccc(NO)cc3)c1)C1CC1)CCCCCC2 (stereo not shown) [Example 348 (Second Title Compound), N-[3-[cyclopropyl(5,6,7,8,9,10-hexahydro-4-hydroxy-2-oxo-2H-cycloocta[b]pyran-3-yl)methyl]phenyl]4-(hydroxyamino)-benzenesulfonamide]	81	102	109	113	98.7	1.7	38.6	–	–	–	–	–	–
O=c1oc2c(c(O)c1C(c1cccc(NS(=O)(=O)c3cccc4nonc34)c1)C1CC1)CCCCCC2 (stereo not shown) [Example 290, N-[3-[Cyclopropyl(5,6,7,8,9,10-hexahydro-4-hydroxy-2-oxo-2H-cycloocta[b]pyran-3-yl)methyl]phenyl]-4-benzofurazansulfonamide]	115	123	119	126	114	2.7	90.3	–	–	–	–	–	–
O=c1oc2c(c(O)c1C(c1cccc(NS(=O)(=O)c3cccc(N4CCCS4(=O)=O)c3)c1)C1CC1)CCCCCC2 (stereo not shown) [Example 357, N-[3-[Cyclopropyl[3-(2-isothiazolidinyl)phenyl]methyl-(5,6,7,8,9,10-hexahydro4-hydroxy-S,S'-dioxide)methyl]phenyl]-3-[(phenylsulfonyl)amino]4-2H-cycloocta[b]pyran2-one]	97.2	101	98.3	96.8	89.6	0.62	104	–	–	–	–	–	–
CCC(c1ccccc1)c1c(O)c2c(oc1=O)C(CC1CC1)CCC2 (stereo not shown) [Example 124, 8-Cyclopropylmethyl-4-hydroxy-3-(1-phenyl-propyl)-5,6,7,8-tetrahydro-chromen-2-one]	–	–	–	–	–	1040	–	< 10	32.4	65.6	81.6	88.2	89.4
COCCOCCOCCOc1ccc(S(=O)(=O)Nc2cccc(C(c3c(O)c4c(oc3=O)CCCCCC4)C3CC3)c2)cc1 (stereo not shown) [Example 415, Benzenesulfonamide, N-[3-[cyclopropyl(5,6,7,8,9,10-hexahydro-4-hydroxy-2-oxo-2H-cycloocta[b]pyran-3-yl)methyl]phenyl]-4-[2-[2-(2-methoxyethoxy)ethoxy]ethoxy]-]	121	128	124	125	120	2.3	126	–	–	–	–	–	–
